Molecules are shown by their SMILES.

What is called EC50 is the concentration needed to bring the measured effect to its halfway point.

Series [1] in a line: Dynamic Vapor Sorption (DVS). It is filed as physicochemical. The note with it: for water content at 95% RH (DVS) / hygroscopicity (DVS): 25° C.; for water content at 95% RH (DVS): two complete sorption/desorption cycles; for hygroscopicity (DVS): DVS isotherm. The method, then: Sorption isotherms were obtained using a SMS DVS Intrinsic moisture sorption analyzer, controlled by DVS Intrinsic Control software v1.0.1.2 (or v1.0.1.3). The sample temperature was maintained at 25° C. by the instrument controls. The humidity was controlled by mixing streams of dry and wet nitrogen, with a total flow rate of 200 ml/min. The relative humidity (RH) was measured by a calibrated Rotronic probe (dynamic range of 1.0-100% RH), located near the sample. The weight change, (mass relaxation) of the sample as a function of % RH was constantly monitored by the microbalance (accuracy ±0.005 mg).

Series [2] addresses T1, hFXR (Homo sapiens, UniProt Q96RI1).
T1 construct: expressed in transfected cells; host or cells: CV-1 cells
T1 sequence (Q96RI1 1-486): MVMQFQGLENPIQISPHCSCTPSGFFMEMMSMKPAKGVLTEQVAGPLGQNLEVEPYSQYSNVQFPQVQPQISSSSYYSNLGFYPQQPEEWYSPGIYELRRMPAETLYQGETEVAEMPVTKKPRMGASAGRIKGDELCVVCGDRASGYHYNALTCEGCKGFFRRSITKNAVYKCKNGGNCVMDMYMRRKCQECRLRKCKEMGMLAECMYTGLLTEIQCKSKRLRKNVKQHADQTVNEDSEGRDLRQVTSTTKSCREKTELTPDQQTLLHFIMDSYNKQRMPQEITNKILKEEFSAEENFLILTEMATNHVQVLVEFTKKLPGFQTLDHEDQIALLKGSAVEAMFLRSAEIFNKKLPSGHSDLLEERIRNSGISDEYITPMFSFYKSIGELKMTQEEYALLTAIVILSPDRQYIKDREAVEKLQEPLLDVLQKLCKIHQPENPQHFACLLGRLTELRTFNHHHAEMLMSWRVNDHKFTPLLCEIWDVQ
T1 sequence (P19793 1-462 partner): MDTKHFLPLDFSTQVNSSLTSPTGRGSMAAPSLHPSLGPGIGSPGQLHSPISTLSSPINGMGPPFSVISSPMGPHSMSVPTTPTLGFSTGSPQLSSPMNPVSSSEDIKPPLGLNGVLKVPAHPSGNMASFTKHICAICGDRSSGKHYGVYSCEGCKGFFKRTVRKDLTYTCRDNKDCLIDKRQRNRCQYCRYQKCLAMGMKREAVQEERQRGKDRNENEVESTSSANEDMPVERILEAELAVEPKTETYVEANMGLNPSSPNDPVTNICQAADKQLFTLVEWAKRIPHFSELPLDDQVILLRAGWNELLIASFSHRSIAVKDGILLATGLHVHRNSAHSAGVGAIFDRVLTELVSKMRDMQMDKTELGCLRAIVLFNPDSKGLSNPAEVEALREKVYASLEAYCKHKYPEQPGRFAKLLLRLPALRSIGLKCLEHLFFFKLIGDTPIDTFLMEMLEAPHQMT
The series is described as follows: In Vitro FXR Assay (TK). Type of series: cell-based. The note with it: CV-1 cells transfected with hFXR, hRXR, TK-ECRE-luc and pCMX-YFP; incubated 18 hrs; luminescence. As for the experimental part: Example 10: In Vitro FXR Assay (TK)
CV-1 were seeded at a density of 2,000,000 cells in a T175 flask with DMEM+10% charcoal double-stripped FBS and incubated at 37° C. in 5% CO2 for 18 h (O/N).
After 18 h of incubation, the medium in the T175 flask was changed with fresh DMEM+10% charcoal super-stripped serum. In a polypropylene tube, 2500 μL OptiMEM (Life Technologies, Cat #31985-062) was combined with expression plasmids for hFXR, hRXR, TK-ECRE-luc and pCMX-YFP. The tube was then briefly vortexed and incubated at room temperature for 5 minutes. Transfection reagent (X-tremeGENE HP from Roche, Cat #06 366 236 001) was added to the OptiMEM/plasmid mixture vortexed and incubated at room temperature for 20 minutes. Following incubation, the transfection reagent/DNA mixture complex was added to cells in the T175 flask and the cells were incubated at 37° C. in 5% CO2 for 18 h (O/N).
Compound 1 was serially diluted in DMSO and added to transfected CV-1 cells. The cells were then incubated for 18 hrs. The next day cells were lysed and examined for luminescence. Compound 1 TK hFXR: EC50≤0.01 μM.

On to `COc1ccc(C23CCC(CN(c4cc(-c5cnn(C(C)(C)C)c5)ccn4)C(=O)[C@H]4CC[C@H](OC(=O)N5CC(O)C5)CC4)(CC2)CC3)cc1C` [Form 4 of Compound 1, 4-((4-(1-(tert-butyl)-1H-pyrazol-4-yl)pyridin-2-yl)((4-(4-methoxy-3-methylphenyl)bicyclo[2.2.2]octan-1-yl)methyl)carbamoyl)cyclohexyl 3-hydroxyazetidine-trans-1-carboxylate], for which, in series [1], the “water content at 95% RH (DVS)” value is on record as 1.9%, the “hygroscopicity (DVS)” value is listed as “only slightly hygroscopic” and the “changes in the XRPD pattern of post-DVS samples” value (shortened to “changes in the XRPD pattern”) was “no significant changes”.

In the case of `COc1ccc(C23CCC(CN(c4cc(-c5cnn(C(C)(C)C)c5)ccn4)C(=O)[C@H]4CC[C@H](OC(=O)N5CC(O)C5)CC4)(CC2)CC3)cc1C` [Form 2 of Compound 1, 4-((4-(1-(tert-butyl)-1H-pyrazol-4-yl)pyridin-2-yl)((4-(4-methoxy-3-methylphenyl)bicyclo[2.2.2]octan-1-yl)methyl)carbamoyl)cyclohexyl 3-hydroxyazetidine-trans-1-carboxylate], in series [1], the “water content at 95% RH (DVS)” value came out at 1.0%, the “hygroscopicity (DVS)” value is on record as “only slightly hygroscopic” and the “changes in the XRPD pattern” value was “no significant changes”.

Turning to `COc1ccc(C23CCC(CN(c4cc(-c5cnn(C(C)(C)C)c5)ccn4)C(=O)[C@H]4CC[C@H](OC(=O)N5CC(O)C5)CC4)(CC2)CC3)cc1C` [Form 1 of Compound 1, 4-((4-(1-(tert-butyl)-1H-pyrazol-4-yl)pyridin-2-yl)((4-(4-methoxy-3-methylphenyl)bicyclo[2.2.2]octan-1-yl)methyl)carbamoyl)cyclohexyl 3-hydroxyazetidine-trans-1-carboxylate], in series [1], the “water content at 95% RH (DVS)” value is given as 1.2%, the “hygroscopicity (DVS)” value is reported as “only slightly hygroscopic” and the “changes in the XRPD pattern” value is reported as “no significant changes”.

The compound `COc1ccc(C23CCC(CN(c4cc(-c5cnn(C(C)(C)C)c5)ccn4)C(=O)[C@H]4CC[C@H](OC(=O)N5CC(O)C5)CC4)(CC2)CC3)cc1C` [Compound 1, 4-((4-(1-(tert-butyl)-1H-pyrazol-4-yl)pyridin-2-yl)((4-(4-methoxy-3-methylphenyl)bicyclo[2.2.2]octan-1-yl)methyl)carbamoyl)cyclohexyl 3-hydroxyazetidine-trans-1-carboxylate] returned an EC50 in series [2] of at most 10 nM.

As for `COc1ccc(C23CCC(CN(c4cc(-c5cnn(C(C)(C)C)c5)ccn4)C(=O)[C@H]4CC[C@H](OC(=O)N5CC(O)C5)CC4)(CC2)CC3)cc1C` [Form 3 of Compound 1, 4-((4-(1-(tert-butyl)-1H-pyrazol-4-yl)pyridin-2-yl)((4-(4-methoxy-3-methylphenyl)bicyclo[2.2.2]octan-1-yl)methyl)carbamoyl)cyclohexyl 3-hydroxyazetidine-trans-1-carboxylate], in series [1], the “water content at 95% RH (DVS)” value was 1.2%, the “hygroscopicity (DVS)” value is “only slightly hygroscopic” and the “changes in the XRPD pattern” value is on record as “no significant changes”.

These data come from patent US12545660B2, “Crystalline forms of a farnesoid X receptor agonist” (ELI LILLY AND COMPANY, priority 2020, dated 2026).
